Experimental findings from patent US4156724A, “N-acylamino-alpha-arylacetamido cephalosporins and antibacterial compositions and methods containing them” (Sumitomo Chemical Company, Limited, priority 1974, dated 1979) are described below.

Type in all cases: cell-based
Experiment [1] has as its system Klebsiella pneumoniae 602. As to the kind of experiment: Minimum Inhibitory Concentration, Klebsiella pneumoniae 602. Conditions: for MIC: Klebsiella pneumoniae, 602, Klebsiella pneumoniae 602, read-out: Minimum Inhibitory Concentration. The method, then:
(§1) anti-microbial activity tests were carried out on the compounds obtained in the Examples.

Experiment [2] relates to Staphylococcus aureus FS 289. Put plainly: Minimum Inhibitory Concentration, Staphylococcus aureus FS 289. Conditions: Staphylococcus aureus FS 289, strain resistant to penicillin; for MIC: FS289, read-out: Minimum Inhibitory Concentration. The method, then: as §1
*Staphylococcus aureus FS 289: strain resistant to penicillin

Experiment [3] relates to Enterobacter aerogeneus No. 75. Put plainly: Minimum Inhibitory Concentration, Enterobacter aerogeneus No. 75. Conditions: Enterobacter aerogeneus No. 75; for MIC: read-out: Minimum Inhibitory Concentration. On the procedure: as §1
The test system of experiment [4] is Proteus vulgaris HX 19. As to the kind of experiment: Minimum Inhibitory Concentration, Proteus vulgaris HX 19. Conditions: Proteus vulgaris HX 19; for MIC: HX19, read-out: Minimum Inhibitory Concentration. On the procedure:
as §1

For experiment [5], the system named is Escherichia coli NIHJ. Put plainly: Minimum Inhibitory Concentration, Escherichia coli NIHJ. Conditions: Escherichia coli NIHJ; for MIC: read-out: Minimum Inhibitory Concentration. The method, then: as §1
The test system of experiment [6] is Serratia No. 72. As to the kind of experiment: Minimum Inhibitory Concentration, Serratia No. 72. On the procedure:
as §1

Experiment [7] has as its system Pseudomonas aeruginosa 104. As to the kind of experiment: Minimum Inhibitory Concentration, Pseudomonas aeruginosa 104. The following applies: Pseudomonas aeruginosa 104; for MIC: read-out: Minimum Inhibitory Concentration. On the procedure: as §1
For experiment [8], the system named is Staphylococcus aureus 209 P. Put plainly: Minimum Inhibitory Concentration, Staphylococcus aureus 209 P. The following applies: Staphylococcus aureus 209 P; for MIC: read-out: Minimum Inhibitory Concentration. The method, then:
as §1

Values after ≈ are worked out from the molar mass of the structure shown.

As for `CSc1cnc2c(O)c(C(=O)NC(C(=O)NC3C(=O)N4C(C(=O)O)=C(CSc5nnnn5C)CSC34)c3cccc(N)c3)cnc2n1` (centres unmarked) [Example 70], the MIC in experiment [1] is 3.13 µg/mL (≈ 4.5 µM); in experiment [2], 6.25 µg/mL (≈ 8.98 µM); in experiment [3], 6.25 µg/mL (≈ 8.98 µM); in experiment [4], 0.1 µg/mL (≈ 0.144 µM); in experiment [5], 3.13 µg/mL (≈ 4.5 µM); in experiment [6], 12.5 µg/mL (≈ 18 µM). The figures for the MIC in experiment [7] and in experiment [8] were 6.25 µg/mL (≈ 8.98 µM) and 1.56 µg/mL (≈ 2.24 µM), respectively.
Regarding `Cn1nnnc1SCC1=C(C(=O)O)N2C(=O)C(NC(=O)C(NC(=O)c3cnc4cccnc4c3O)c3ccc(N)cc3)C2SC1` (centres unmarked) [Example 71], the MIC in experiment [1] was found to be 3.13 µg/mL (≈ 4.83 µM); in experiment [2], 6.25 µg/mL (≈ 9.63 µM); in experiment [3], 3.13 µg/mL (≈ 4.83 µM); in experiment [4], 0.1 µg/mL (≈ 0.154 µM); in experiment [5], 1.56 µg/mL (≈ 2.4 µM); in experiment [6], 12.5 µg/mL (≈ 19.3 µM). Further, the figures for the MIC in experiment [7] and in experiment [8] were 3.13 µg/mL (≈ 4.83 µM) and 1.56 µg/mL (≈ 2.4 µM), respectively.
As for `Cn1nnnc1SCC1=C(C(=O)O)N2C(=O)C(NC(=O)C(NC(=O)c3cnc4cncnc4c3O)c3cccc(N)c3)C2SC1` (centres unmarked) [Example 72], the MIC in experiment [1] worked out at 6.25 µg/mL (≈ 9.62 µM); in experiment [2], 6.25 µg/mL (≈ 9.62 µM); in experiment [3], 12.5 µg/mL (≈ 19.2 µM); in experiment [4], 0.2 µg/mL (≈ 0.308 µM); in experiment [5], 3.13 µg/mL (≈ 4.82 µM); in experiment [6] it was 50 µg/mL (≈ 77 µM). Besides, the MIC came to 6.25 µg/mL (≈ 9.62 µM) in experiment [7] and 0.78 µg/mL (≈ 1.2 µM) in experiment [8].
With `CSc1ncc2c(O)c(C(=O)NC(C(=O)NC3C(=O)N4C(C(=O)O)=C(CSc5cnn[nH]5)CSC34)c3cccc(N)c3)cnc2n1` (centres unmarked) [Example 73], the MIC in experiment [1] came to 3.13 µg/mL (≈ 4.6 µM); in experiment [2] it was 6.25 µg/mL (≈ 9.18 µM); in experiment [3] it was 6.25 µg/mL (≈ 9.18 µM); in experiment [4] it was 0.2 µg/mL (≈ 0.294 µM); in experiment [5], 6.25 µg/mL (≈ 9.18 µM); in experiment [6], 25 µg/mL (≈ 36.7 µM). In addition, the MIC worked out at 6.25 µg/mL (≈ 9.18 µM) in experiment [7] and 0.78 µg/mL (≈ 1.15 µM) in experiment [8].
Regarding `CN(C)c1ccc2ncc(C(=O)NC(C(=O)NC3C(=O)N4C(C(=O)O)=C(CSc5nnnn5C)CSC34)c3cccc(N)c3)c(O)c2n1` (centres unmarked) [Example 74], the MIC in experiment [1] came to 3.13 µg/mL (≈ 4.52 µM); in experiment [2], 6.25 µg/mL (≈ 9.03 µM); in experiment [3] it was 6.25 µg/mL (≈ 9.03 µM); in experiment [4] it was 0.1 µg/mL (≈ 0.145 µM); in experiment [5], 1.56 µg/mL (≈ 2.26 µM); in experiment [6], 12.5 µg/mL (≈ 18.1 µM). Also, the MIC amounted to 3.13 µg/mL (≈ 4.52 µM) in experiment [7] and 0.78 µg/mL (≈ 1.13 µM) in experiment [8].
In the case of `Cc1nnc(SCC2=C(C(=O)O)N3C(=O)C(NC(=O)C(NC(=O)c4cnc5sccc5c4O)c4cccc(N)c4)C3SC2)s1` (centres unmarked) [Example 75], the MIC in experiment [1] stood at 3.13 µg/mL (≈ 4.67 µM); in experiment [2], 12.5 µg/mL (≈ 18.7 µM); in experiment [3], 12.5 µg/mL (≈ 18.7 µM); in experiment [4], 0.39 µg/mL (≈ 0.582 µM); in experiment [5], 6.25 µg/mL (≈ 9.33 µM); in experiment [6], 25 µg/mL (≈ 37.3 µM). The MIC in experiment [7] came out at 6.25 µg/mL (≈ 9.33 µM); in experiment [8] it was 1.56 µg/mL (≈ 2.33 µM).
With `Cc1nnc(SCC2=C(C(=O)O)N3C(=O)C(NC(=O)C(NC(=O)c4cnc5c(O)ccnc5c4O)c4cccc(N)c4)C3SC2)s1` (centres unmarked) [Example 76], the MIC in experiment [1] was determined as 3.13 µg/mL (≈ 4.6 µM); in experiment [2] it was 6.25 µg/mL (≈ 9.18 µM); in experiment [3] it was 3.13 µg/mL (≈ 4.6 µM); in experiment [4] it was 0.2 µg/mL (≈ 0.294 µM); in experiment [5], 3.13 µg/mL (≈ 4.6 µM); in experiment [6], 12.5 µg/mL (≈ 18.4 µM). Also, the values for the MIC in experiment [7] and in experiment [8] were 3.13 µg/mL (≈ 4.6 µM) and 0.78 µg/mL (≈ 1.15 µM), respectively.
Take `Cn1nnnc1SCC1=C(C(=O)O)N2C(=O)C(NC(=O)C(NC(=O)c3cnc4ccc(O)nc4c3O)c3cccc(N)c3)C2SC1` (centres unmarked) [Example 77]: the MIC in experiment [1] came to 3.13 µg/mL (≈ 4.71 µM); in experiment [2], 6.25 µg/mL (≈ 9.4 µM); in experiment [3], 3.13 µg/mL (≈ 4.71 µM); in experiment [4], 0.1 µg/mL (≈ 0.15 µM); in experiment [5], 3.13 µg/mL (≈ 4.71 µM); in experiment [6] it was 12.5 µg/mL (≈ 18.8 µM). Moreover, the MIC in experiment [7] amounted to 3.13 µg/mL (≈ 4.71 µM); in experiment [8], 0.78 µg/mL (≈ 1.17 µM).
In the case of `CNc1nnc(SCC2=C(C(=O)O)N3C(=O)C(NC(=O)C(NC(=O)c4cnc5cccnc5c4O)c4cccc(N)c4)C3SC2)s1` (centres unmarked) [Example 78], the MIC in experiment [1] stood at 3.13 µg/mL (≈ 4.6 µM); in experiment [2], 6.25 µg/mL (≈ 9.19 µM); in experiment [3] it was 6.25 µg/mL (≈ 9.19 µM); in experiment [4] it was 0.2 µg/mL (≈ 0.294 µM); in experiment [5] it was 3.13 µg/mL (≈ 4.6 µM); in experiment [6], 12.5 µg/mL (≈ 18.4 µM). Further, the figures for the MIC in experiment [7] and in experiment [8] were 3.13 µg/mL (≈ 4.6 µM) and 0.78 µg/mL (≈ 1.15 µM), respectively.
In the case of `NCc1nnc(SCC2=C(C(=O)O)N3C(=O)C(NC(=O)C(NC(=O)c4cnc5cccnc5c4O)c4cccc(N)c4)C3SC2)s1` (centres unmarked) [Example 79], the MIC in experiment [1] is 3.13 µg/mL (≈ 4.6 µM); in experiment [2], 12.5 µg/mL (≈ 18.4 µM); in experiment [3], 6.25 µg/mL (≈ 9.19 µM); in experiment [4], 0.2 µg/mL (≈ 0.294 µM); in experiment [5], 6.25 µg/mL (≈ 9.19 µM); in experiment [6], 12.5 µg/mL (≈ 18.4 µM). Further, the MIC in experiment [7] was determined as 3.13 µg/mL (≈ 4.6 µM); in experiment [8] it was 0.78 µg/mL (≈ 1.15 µM).
On to `Nc1cccc(C(NC(=O)c2cnc3cccnc3c2O)C(=O)NC2C(=O)N3C(C(=O)O)=C(CSc4n[nH]c(=O)s4)CSC23)c1` (centres unmarked) [Example 80], for which the MIC in experiment [1] was 3.13 µg/mL (≈ 4.69 µM); in experiment [2], 6.25 µg/mL (≈ 9.37 µM); in experiment [3] it was 3.13 µg/mL (≈ 4.69 µM); in experiment [4], 0.2 µg/mL (≈ 0.3 µM); in experiment [5] it was 3.13 µg/mL (≈ 4.69 µM); in experiment [6], 12.5 µg/mL (≈ 18.7 µM). In addition, the values for the MIC in experiment [7] and in experiment [8] were 3.13 µg/mL (≈ 4.69 µM) and 0.78 µg/mL (≈ 1.17 µM), respectively.
As for `Nc1ccc(C(NC(=O)c2cnc3cccnc3c2O)C(=O)NC2C(=O)N3C(C(=O)O)=C(CSc4nnc(CO)s4)CSC23)cc1` (centres unmarked) [Example 81], the MIC in experiment [1] was found to be 3.13 µg/mL (≈ 4.6 µM); in experiment [2] it was 6.25 µg/mL (≈ 9.18 µM); in experiment [3] it was 3.13 µg/mL (≈ 4.6 µM); in experiment [4], 0.1 µg/mL (≈ 0.147 µM); in experiment [5], 1.56 µg/mL (≈ 2.29 µM); in experiment [6], 12.5 µg/mL (≈ 18.4 µM). Moreover, the MIC was found to be 3.13 µg/mL (≈ 4.6 µM) in experiment [7] and 1.56 µg/mL (≈ 2.29 µM) in experiment [8].
`Cn1nnc(SCC2=C(C(=O)O)N3C(=O)C(NC(=O)C(NC(=O)c4cnc5cccnc5c4O)c4ccc(N)cc4)C3SC2)n1` (centres unmarked) [Example 82]: the MIC was found to be 1.56 µg/mL (≈ 2.4 µM) in experiment [1]; 6.25 µg/mL (≈ 9.63 µM) in experiment [2]; 3.13 µg/mL (≈ 4.83 µM) in experiment [3]; 0.1 µg/mL (≈ 0.154 µM) in experiment [4]; 3.13 µg/mL (≈ 4.83 µM) in experiment [5]; 12.5 µg/mL (≈ 19.3 µM) in experiment [6]. Moreover, the results for the MIC in experiment [7] and in experiment [8] were 3.13 µg/mL (≈ 4.83 µM) and 0.78 µg/mL (≈ 1.2 µM), respectively.
Regarding `Nc1ccc(C(NC(=O)c2cnccc2O)C(=O)NC2C(=O)N3C(C(=O)O)=C(CSc4nnc(CO)s4)CSC23)cc1` (centres unmarked) [Example 83], the MIC stood at 6.25 µg/mL (≈ 9.93 µM) in experiment [1]; 6.25 µg/mL (≈ 9.93 µM) in experiment [2]; 12.5 µg/mL (≈ 19.9 µM) in experiment [3]; 0.2 µg/mL (≈ 0.318 µM) in experiment [4]; 6.25 µg/mL (≈ 9.93 µM) in experiment [5]; 50 µg/mL (≈ 79.4 µM) in experiment [6]. Also, the MIC in experiment [7] amounted to 6.25 µg/mL (≈ 9.93 µM); in experiment [8], 0.39 µg/mL (≈ 0.619 µM).
For the compound `Nc1cccc(C(NC(=O)c2cnccc2O)C(=O)NC2C(=O)N3C(C(=O)O)=C(CSc4nnc(CO)s4)CSC23)c1` (centres unmarked) [Example 84], the “Minimum Inhibitory Concentration” value in experiment [1] (Klebsiella pneumoniae 602) was determined as 3.13 µg/mL; in experiment [2], 6.25 µg/mL; in experiment [3], 12.5 µg/mL; in experiment [4], 0.2 µg/mL; in experiment [5], 6.25 µg/mL; in experiment [6], 50 µg/mL. Moreover, the “Minimum Inhibitory Concentration” value in experiment [7] is 6.25 µg/mL; in experiment [8], 0.39 µg/mL.
`Nc1cccc(C(NC(=O)c2cnccc2O)C(=O)NC2C(=O)N3C(C(=O)O)=C(CSc4ccc(O)nn4)CSC23)c1` (centres unmarked) [Example 85]: the MIC in experiment [1] was found to be 3.13 µg/mL (≈ 5.13 µM); in experiment [2], 6.25 µg/mL (≈ 10.3 µM); in experiment [3] it was 25 µg/mL (≈ 41 µM); in experiment [4] it was 0.2 µg/mL (≈ 0.328 µM); in experiment [5], 6.25 µg/mL (≈ 10.3 µM); in experiment [6], 100 µg/mL (≈ 164 µM). Moreover, the MIC in experiment [7] came out at 6.25 µg/mL (≈ 10.3 µM); in experiment [8] it was 0.39 µg/mL (≈ 0.64 µM).
